Laboratory results reported in patent US20160318856A1, “Substituted Urea eIF2alpha Kinase Activators” (THE BRIGHAM AND WOMEN'S HOSPITAL, INC., priority 2013, published 2016).
Like-named read-outs stand apart in the source and are kept apart here.

Key:
ASPC-1 = experiment: cell proliferation assay, ASPC-1; format: cell-based; settings: Homo sapiens, ASPC1; SRB assay, Table 7; read-out: IC50 ASPC-1
Method: (§1) Cells were seeded in 96-well plates and maintained for 5 days in the presence of 0.5 to 20 μM of individual compound, and cell proliferation was measured by the sulforhodamine B (SRB) assay as described previously (see, for example, Palakurthi, S. S. et al. Cancer Research 2000, 60(11), 2919-2925). Briefly, at the end of a 5-day treatment, cells were fixed in 10% cold trichloroacetic acid. Cell number was estimated by measuring the remaining bound dye of sulforhodamine B after washing. The percentage of growth was calculated by using the equation: 100×[(T−T0)/(C−T0)], where T and C represent the absorbance in treated and control cultures at Day 5, and T0 at time zero, respectively. If T is less than T0, cell death has occurred and can be calculated from 100×[(T−T0)/T0].
(§2) The compounds shown in Table 7 were evaluated using for activation of HRI using the dual luciferase surrogate eIF2α phosphorylation assay (see, for example, Chen, T. et al. Nature Chem Biol 2011, 7, 610-616) and for inhibition of cell proliferation using the SRB assay (see, for example, Palakurthi, S. S. et al. Cancer Res 2000, 60, 2919-2925) as described above.

[1] = test system: eIF2α phosphorylation (eIF2•GTP•Met-tRNAi ternary complex; HRI activation); experiment: surrogate dual luciferase eIF2α phosphorylation (ternary complex) assay; format: cell-based, human; settings: for maximal fold induction: Homo sapiens; for C3X: Calculated concentration of compound that will cause three-fold increase in the surrogate eIF2α phosphorylation assay: Table 7
How it was run: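 Cell-based dual luciferase reporter: firefly luciferase behind the ATF-4 5′UTR (uORFs) and renilla luciferase behind a uORF-free 5′UTR, read with a dual glow kit. Activity given as firefly/renilla ratio normalised to DMSO wells set at 1, with a rising ratio reflecting reduced ternary complex (e.g., HRI activation).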

Panc-1 = experiment: cell proliferation (SRB) assay, Panc-1; format: cell-based; settings: Homo sapiens, Table 7
Method: as §1, §2

[2] = test system: CRL-2813 human melanoma cancer cells; experiment: cell proliferation (SRB) assay, CRL-2813; format: cell-based
How it was run: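 Cells exposed 5 days to 0.5–20 μM compound, then TCA-fixed and stained with sulforhodamine B. Growth as 100×[(T−T0)/(C−T0)] from absorbance of treated, control and time-zero cultures; cell death as 100×[(T−T0)/T0] where T is below T0.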

[3] = test system: CRL-2813 human melanoma cancer cells transfected with HRI-targeting or non-targeting siRNA; experiment: cell proliferation (SRB) assay after HRI knockdown; format: cell-based; settings: for fold higher IC50 values in cells transfected with HRI-targeting siRNA vs. non-targeting siRNA: CRL-2813 cells, FIG. 10; for dependence of inhibition of cell proliferation on HRI: HRI siRNA vs non-target siRNA, CRL-2813 (also MCF-7); for fold difference in resistance of cells to inhibition of cell proliferation upon HRI knockdown: average, CRL-2813, FIG. 8
Method: as §1
Cell proliferation is a meaningful read-out for determining the specificity of a compound as it captures both on-target and off-target effects of the compound under study. […] If these compounds specifically activate HRI and this activity is required for the inhibition of cell proliferation, then reducing the expression of HRI should blunt their effect on cell proliferation. For this purpose, expression of HRI was knocked down in CRL-2813 human melanoma (about 70% knockdown efficiency) and MCF-7 human breast cancer cells (about 90% knockdown efficiency). These two cell lines were chosen because the HRI knockdown efficiency is lower in CRL-2813 than in MCF-7 cells providing a sort of dose-response data that correlates knockdown efficiency with the resistance of cells to inhibition of cell proliferation. […] Referring to FIG. 5A, CRL-2813 human melanoma cancer cells, and (FIG. 5B) MCF-7 human breast cancer cells were transfected with HRI targeted or non-targeted siRNA, treated with the indicated concentrations of I-6p and cell proliferation was measured by SRB assay. Calculated IC50 for all four compounds tested in CRL-2813 human melanoma cancer cells and MCF-7 human breast cancer cells transfected with non-target siRNA control (NTC) or HRI is shown in FIG. 5C and FIG. 5D, respectively. The experiment was conducted in triplicate and each experiment was independently performed three times. Data are shown as Mean±S.E.M. *NTC=non-target siRNA control.
Referring to FIG. 8, CRL-2813 human melanoma cancer cells were transfected with HRI targeted or non-targeted siRNA, treated with the indicated concentrations of (A) I-14, (B) I-15, (C) III-4 and (D) III-5 and cell proliferation was measured by SRB assay. Calculated IC50 for all four compounds tested in CRL-2813 human melanoma cancer cells transfected with non-target siRNA control (NTC) or HRI is shown in (E). The experiment was conducted in triplicate and each experiment was independently performed three times. Data are shown as Mean±S.E.M. *NTC=non-target siRNA control, IC50=effective dose of drug that inhibit cell proliferation by 50%.
In general, if the affinity of compounds for their molecular target is increased this should result in higher specificity of the compounds in the cell proliferation assay. […] These five compounds, two with average and three with high potency, were tested in cell proliferation assay using CRL-2813 cells transfected with non-targeted siRNA or HRI-targeted siRNA as described above.

NIH/3T3 fibroblast cells = experiment: cell proliferation (SRB) assay, NIH/3T3; format: cell-based; settings: for fold higher potency on cancer cells compared to non-transformed cells: CRL-2813 human melanoma vs NIH-3T3 fibroblast
Method: as §1
The experiments were conducted in triplicate, and each experiment was independently performed three times. IC50=effective dose of drug that inhibit cell proliferation by 50%. Data are shown as Mean±S.E.M.
Compounds I-6p, I-17, I-18 and I-20 were tested in NIH/3T3 fibroblast and CRL-2813 melanoma cancer cells in cell proliferation assay. The experiment was conducted in triplicate and each experiment was independently performed three times. Data are shown as Mean IC50±S.E.M.

[4] = DMSO = 1, maximum tested concentration 20 μM, read-out: Emax: Maximum activity of compound expressed as fold over vehicle
[5] = Homo sapiens, CRL2813, SRB assay, Table 7, read-out: IC50 CRL-2813
[6] = surrogate eIF2α phosphorylation assay, Table 3, read-out: Emax (F/R)
[7] = Homo sapiens, CRL2813, cell proliferation assay, Table 3, cell line not named, values equal CRL-2813 values of Table 8, read-out: IC50
[8] = surrogate eIF2α phosphorylation assay, Table 4, read-out: Emax (F/R)
[9] = Homo sapiens, CRL2813, cell proliferation assay, Table 4, cell line not named, read-out: IC50

SMILES	IC50 (ASPC-1) [nM]	maximal fold induction [1, 4]	C3X: Calculated concentration of compound that will cause three-fold increase in the surrogate eIF2α phosphorylation assay [1] [µM]	IC50 (Panc-1) [nM]	IC50 [2, 5] [nM]	other results
O=C(Nc1cccc(OC(F)(F)F)c1)N[C@H]1CC[C@H](Oc2ccc(C(F)(F)F)cc2[N+](=O)[O-])CC1	800	12	0.5	1100	500	–
O=C(Nc1cccc(C(F)(F)F)c1)NC1CCC(Oc2ccccc2F)CC1 (stereo not shown) [Compound I-14, 1-(4-(2-Fluorophenoxy)cyclohexyl)-3-(3-(trifluoromethyl)phenyl)urea]	–	–	–	–	–	fold higher IC50 values in cells transfected with HRI-targeting siRNA vs. non-targeting siRNA [3]: ~7 fold; dependence of inhibition of cell proliferation on HRI [3]: dependent on HRI; fold difference in resistance of cells to inhibition of cell proliferation upon HRI knockdown [3]: ~8 fold; maximal fold induction [1, 6]: 7.98; IC50 [2, 7]: 2450 ± 900 nM
O=C(Nc1cccc(C(F)(F)F)c1)NC1CCC(Oc2ccc(C(F)(F)F)cc2)CC1 (stereo not shown) [Compound I-18, 1-(4-(4-(Trifluoromethyl)phenoxy)cyclohexyl)-3-(3-(trifluoromethyl)phenyl)urea]	–	–	–	–	–	fold higher IC50 values in cells transfected with HRI-targeting siRNA vs. non-targeting siRNA [3]: ~7.5 fold; fold higher potency on cancer cells compared to non-transformed cells (NIH/3T3 fibroblast cells): highest discrimination between cancer and non-cancerous cells; IC50 (NIH/3T3 fibroblast cells; Mus musculus, NIH3T3, NIH/3T3, Table 8, Mean IC50±S.E.M., read-out: IC50 of compounds): 3400 ± 100 nM; maximal fold induction [1, 6]: 25.1; IC50 ([2]; Homo sapiens, CRL2813, CRL-2813, Table 8, Mean IC50±S.E.M., read-out: IC50 of compounds): 460 ± 100 nM; IC50 [2, 7]: 460 ± 100 nM
O=C(Nc1ccc(OC(F)(F)F)cc1)NC1CCC(Oc2ccc(F)cc2)CC1 (stereo not shown) [Compound I-6p]	–	–	–	–	–	fold higher potency on cancer cells compared to non-transformed cells (NIH/3T3 fibroblast cells): five-fold higher potency; IC50 (NIH/3T3 fibroblast cells; NIH/3T3, Table 5, Mean±S.E.M., read-out: IC50): 13600 ± 800 nM; IC50 (NIH/3T3 fibroblast cells; NIH/3T3, Table 8, Mean IC50±S.E.M., read-out: IC50 of compounds): 13600 ± 800 nM; Emax (F/R) ([1]; ternary complex assay, F/R normalized to vehicle (DMSO = 1)): 15.32 F/R; IC50 ([2]; CRL-2813, Table 5, Mean±S.E.M., read-out: IC50): 2700 ± 100 nM; IC50 ([2]; CRL-2813, Table 8, Mean IC50±S.E.M., read-out: IC50 of compounds): 2700 ± 100 nM; IC50 ([2]; cell proliferation assay (SRB, 5 days), cell line not named in Table 1, values equal CRL-2813 values of Tables 5/8, read-out: IC50): 2700 ± 100 nM
O=C(Nc1cccc(OC(F)(F)F)c1)N[C@H]1CC[C@H](Oc2ccc(C(F)(F)F)cc2)CC1	1000	28	0.2	1500	900	–
O=C(Nc1cccc(C(F)(F)F)c1)NC1CCC(OCc2ccc(F)cc2)CC1 (stereo not shown) [III-4, 1-(4-((4-Fluorobenzyl)oxy)cyclohexyl)-3-(3-(trifluoromethyl)phenyl)urea]	–	–	–	–	–	dependence of inhibition of cell proliferation on HRI [3]: dependent on HRI; maximal fold induction [1, 8]: 9.58; IC50 [2, 9]: 2650 ± 800 nM
O=C(Nc1cccc(C(F)(F)F)c1)N[C@H]1CC[C@H](Oc2ccc(C(F)(F)F)cc2[N+](=O)[O-])CC1	> 10000	13	5	4000	4000	–
CC(=O)Nc1cc(C(F)(F)F)ccc1O[C@H]1CC[C@H](NC(=O)Nc2cccc(C(F)(F)F)c2)CC1	2600	4.2	3.5	1700	1900	–
NC(=O)c1cc(O[C@H]2CC[C@H](NC(=O)Nc3cccc(OC(F)(F)F)c3)CC2)ccc1C(F)(F)F	2900	5	14	3000	3000	–
O=C(Nc1cccc(C(F)(F)F)c1)NC1CCCCC1Oc1ccc(C(F)(F)F)cc1 (stereo not shown) [III-5, 1-(2-(4-(Trifluoromethyl)phenoxy)cyclohexyl)-3-(3-(trifluoromethyl)phenyl)urea]	–	–	–	–	–	dependence of inhibition of cell proliferation on HRI [3]: dependent on HRI; maximal fold induction [1, 8]: 5.89; IC50 [2, 9]: 3100 ± 1100 nM
NC(=O)c1cc(O[C@H]2CC[C@H](NC(=O)Nc3cccc(C(F)(F)F)c3)CC2)ccc1C(F)(F)F	3000	2.8	>20	2500	2100	–
CC(=O)Nc1cc(C(F)(F)F)ccc1O[C@H]1CC[C@H](NC(=O)Nc2cccc(OC(F)(F)F)c2)CC1	2800	5	4	2500	1700	–
O=C(Nc1cccc(C(F)(F)F)c1)NC1CCC(Oc2cccc(F)c2)CC1 (stereo not shown) [Compound I-15, 1-(4-(3-Fluorophenoxy)cyclohexyl)-3-(3-(trifluoromethyl)phenyl)urea]	–	–	–	–	–	fold higher IC50 values in cells transfected with HRI-targeting siRNA vs. non-targeting siRNA [3]: ~7 fold; dependence of inhibition of cell proliferation on HRI [3]: dependent on HRI; fold difference in resistance of cells to inhibition of cell proliferation upon HRI knockdown [3]: ~8 fold; maximal fold induction [1, 6]: 7.23; IC50 [2, 7]: 2400 ± 600 nM
NC(=O)c1cc(C(F)(F)F)ccc1O[C@H]1CC[C@H](NC(=O)Nc2cccc(OC(F)(F)F)c2)CC1	3200	6	8	1900	1400	–
NC(=O)c1cc(C(F)(F)F)ccc1O[C@H]1CC[C@H](NC(=O)Nc2cccc(C(F)(F)F)c2)CC1	4000	8	7	2700	1900	–
O=C(Nc1cccc(C(F)(F)F)c1)N[C@H]1CC[C@H](Oc2ccc(C(F)(F)F)cc2)CC1	900	25	0.4	900	500	–
